Measurements reported in ChEMBL document CHEMBL5715954, “Silencing c-Myc translation as a therapeutic strategy through targeting PI3Kδ and CK1ε in hematological malignancies” (Blood, 2017).

Assays:
Set-up in all cases: scale not given: the % may be the effect or the level left
[1] = molecular target: Tyrosine-protein kinase BTK (Homo sapiens) (UniProt Q06187); experiment: Inhibition of human BTK assessed as enzyme activity at 1 uM using poly[Glu:Tyr] (4:1) as substrate preincubated for 20 mins followed by [gamma-33P]-ATP addition and measured after 120 mins by radiometric Hot-SpotSM Kinase assay relative to control
[2] = molecular target: RAC-alpha serine/threonine-protein kinase (Homo sapiens) (UniProt P31749); experiment: Inhibition of human AKT1 assessed as enzyme activity at 1 uM using KGSGSGRPRTSSFAEG as substrate preincubated for 20 mins followed by [gamma-33P]-ATP addition and measured after 120 mins by radiometric Hot-SpotSM Kinase assay relative to control
[3] = molecular target: T1, NUAK family SNF1-like kinase 2 (Homo sapiens) (UniProt Q9H093); experiment: Inhibition of human SNARK assessed as enzyme activity at 1 uM using KKKVSRSGLYRSPSMPENLNRPR as substrate preincubated for 20 mins followed by [gamma-33P]-ATP addition and measured after 120 mins by radiometric Hot-SpotSM Kinase assay relative to control
T1 sequence (whole entry): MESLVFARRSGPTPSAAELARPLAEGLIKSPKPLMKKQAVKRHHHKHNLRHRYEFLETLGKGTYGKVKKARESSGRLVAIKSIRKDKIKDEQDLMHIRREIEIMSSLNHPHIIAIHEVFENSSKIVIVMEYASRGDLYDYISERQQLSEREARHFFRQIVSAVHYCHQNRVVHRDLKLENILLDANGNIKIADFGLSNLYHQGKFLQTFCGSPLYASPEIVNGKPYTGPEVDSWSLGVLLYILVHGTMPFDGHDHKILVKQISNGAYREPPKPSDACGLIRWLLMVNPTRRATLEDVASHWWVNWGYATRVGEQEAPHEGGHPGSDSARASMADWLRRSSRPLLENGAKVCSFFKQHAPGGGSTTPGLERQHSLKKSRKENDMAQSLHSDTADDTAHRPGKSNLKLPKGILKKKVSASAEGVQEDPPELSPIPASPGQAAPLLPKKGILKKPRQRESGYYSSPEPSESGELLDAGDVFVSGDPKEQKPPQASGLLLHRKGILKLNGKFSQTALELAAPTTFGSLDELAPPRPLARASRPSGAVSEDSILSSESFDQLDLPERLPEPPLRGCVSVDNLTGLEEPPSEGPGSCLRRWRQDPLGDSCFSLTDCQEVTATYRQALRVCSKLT

[4] = molecular target: T2, Serine/threonine-protein kinase BRSK2 (Homo sapiens) (UniProt Q8IWQ3); experiment: Inhibition of human BRSK2 assessed as enzyme activity at 1 uM using KKLNRTLSFAEPG as substrate preincubated for 20 mins followed by [gamma-33P]-ATP addition and measured after 120 mins by radiometric Hot-SpotSM Kinase assay relative to control
T2 sequence (whole entry): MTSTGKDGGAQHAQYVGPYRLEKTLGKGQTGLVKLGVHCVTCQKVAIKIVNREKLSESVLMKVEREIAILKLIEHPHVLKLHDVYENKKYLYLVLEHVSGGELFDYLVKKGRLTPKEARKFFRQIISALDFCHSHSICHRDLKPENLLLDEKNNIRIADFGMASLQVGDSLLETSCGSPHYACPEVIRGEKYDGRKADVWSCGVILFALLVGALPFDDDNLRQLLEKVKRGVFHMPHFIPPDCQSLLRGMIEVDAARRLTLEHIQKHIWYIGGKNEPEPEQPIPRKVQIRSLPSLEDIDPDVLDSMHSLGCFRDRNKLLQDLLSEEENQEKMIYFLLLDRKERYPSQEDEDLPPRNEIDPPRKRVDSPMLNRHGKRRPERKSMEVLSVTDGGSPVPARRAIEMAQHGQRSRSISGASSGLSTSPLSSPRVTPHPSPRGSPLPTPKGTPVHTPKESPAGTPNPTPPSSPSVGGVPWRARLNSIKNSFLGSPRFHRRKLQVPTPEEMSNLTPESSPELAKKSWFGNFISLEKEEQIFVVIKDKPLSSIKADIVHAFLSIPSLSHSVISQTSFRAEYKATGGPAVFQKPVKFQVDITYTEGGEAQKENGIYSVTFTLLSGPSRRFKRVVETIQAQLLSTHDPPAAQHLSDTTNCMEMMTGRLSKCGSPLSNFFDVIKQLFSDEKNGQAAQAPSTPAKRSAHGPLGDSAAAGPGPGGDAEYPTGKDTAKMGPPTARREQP

[5] = molecular target: Mitogen-activated protein kinase kinase kinase 20 (Homo sapiens) (UniProt Q9NYL2); experiment: Inhibition of human ZAK/MLTK assessed as enzyme activity at 1 uM using myelin basic protein as substrate preincubated for 20 mins followed by [gamma-33P]-ATP addition and measured after 120 mins by radiometric Hot-SpotSM Kinase assay relative to control
[6] = molecular target: T3, Serine/threonine-protein kinase 3 (Homo sapiens) (UniProt Q13188); experiment: Inhibition of human MST2 assessed as enzyme activity at 1 uM using myelin basic protein as substrate preincubated for 20 mins followed by [gamma-33P]-ATP addition and measured after 120 mins by radiometric Hot-SpotSM Kinase assay relative to control
T3 sequence (whole entry): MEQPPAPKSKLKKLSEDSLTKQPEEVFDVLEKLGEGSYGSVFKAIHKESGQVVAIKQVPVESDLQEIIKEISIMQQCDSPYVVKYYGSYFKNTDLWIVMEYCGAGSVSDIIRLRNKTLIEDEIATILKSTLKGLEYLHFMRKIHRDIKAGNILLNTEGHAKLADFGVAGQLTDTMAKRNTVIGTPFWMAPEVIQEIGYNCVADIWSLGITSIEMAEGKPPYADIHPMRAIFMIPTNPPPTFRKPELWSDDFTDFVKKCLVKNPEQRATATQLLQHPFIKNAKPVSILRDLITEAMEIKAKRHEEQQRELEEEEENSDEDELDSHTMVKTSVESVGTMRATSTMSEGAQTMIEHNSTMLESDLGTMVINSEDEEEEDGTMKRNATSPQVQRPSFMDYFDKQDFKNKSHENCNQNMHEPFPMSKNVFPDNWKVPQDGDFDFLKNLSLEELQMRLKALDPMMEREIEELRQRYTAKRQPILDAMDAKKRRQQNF

Chain of Mitogen-activated protein kinase kinase kinase 20 (Homo sapiens) (Q9NYL2 2-800 limits assumed): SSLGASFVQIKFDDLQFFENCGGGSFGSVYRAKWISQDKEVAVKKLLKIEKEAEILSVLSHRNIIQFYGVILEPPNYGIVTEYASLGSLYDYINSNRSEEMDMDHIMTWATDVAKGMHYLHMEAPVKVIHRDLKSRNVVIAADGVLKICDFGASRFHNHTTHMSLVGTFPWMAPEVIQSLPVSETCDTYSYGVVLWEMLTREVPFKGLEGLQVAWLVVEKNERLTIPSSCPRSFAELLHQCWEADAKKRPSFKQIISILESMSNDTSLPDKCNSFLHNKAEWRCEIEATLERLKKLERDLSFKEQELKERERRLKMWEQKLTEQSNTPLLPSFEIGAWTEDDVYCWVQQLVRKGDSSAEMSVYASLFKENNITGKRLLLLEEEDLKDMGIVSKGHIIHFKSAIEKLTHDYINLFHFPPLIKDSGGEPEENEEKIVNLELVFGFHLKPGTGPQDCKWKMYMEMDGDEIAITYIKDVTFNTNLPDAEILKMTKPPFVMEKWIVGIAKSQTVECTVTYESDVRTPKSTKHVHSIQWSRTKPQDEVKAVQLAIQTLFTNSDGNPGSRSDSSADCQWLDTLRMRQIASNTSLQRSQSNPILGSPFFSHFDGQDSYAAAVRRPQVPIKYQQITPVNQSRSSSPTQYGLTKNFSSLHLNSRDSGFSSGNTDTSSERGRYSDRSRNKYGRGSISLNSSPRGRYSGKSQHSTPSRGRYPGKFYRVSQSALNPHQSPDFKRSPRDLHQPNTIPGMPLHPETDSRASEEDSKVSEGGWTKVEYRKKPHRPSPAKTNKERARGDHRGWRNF
Chain of Tyrosine-protein kinase BTK (Homo sapiens) (Q06187 whole entry): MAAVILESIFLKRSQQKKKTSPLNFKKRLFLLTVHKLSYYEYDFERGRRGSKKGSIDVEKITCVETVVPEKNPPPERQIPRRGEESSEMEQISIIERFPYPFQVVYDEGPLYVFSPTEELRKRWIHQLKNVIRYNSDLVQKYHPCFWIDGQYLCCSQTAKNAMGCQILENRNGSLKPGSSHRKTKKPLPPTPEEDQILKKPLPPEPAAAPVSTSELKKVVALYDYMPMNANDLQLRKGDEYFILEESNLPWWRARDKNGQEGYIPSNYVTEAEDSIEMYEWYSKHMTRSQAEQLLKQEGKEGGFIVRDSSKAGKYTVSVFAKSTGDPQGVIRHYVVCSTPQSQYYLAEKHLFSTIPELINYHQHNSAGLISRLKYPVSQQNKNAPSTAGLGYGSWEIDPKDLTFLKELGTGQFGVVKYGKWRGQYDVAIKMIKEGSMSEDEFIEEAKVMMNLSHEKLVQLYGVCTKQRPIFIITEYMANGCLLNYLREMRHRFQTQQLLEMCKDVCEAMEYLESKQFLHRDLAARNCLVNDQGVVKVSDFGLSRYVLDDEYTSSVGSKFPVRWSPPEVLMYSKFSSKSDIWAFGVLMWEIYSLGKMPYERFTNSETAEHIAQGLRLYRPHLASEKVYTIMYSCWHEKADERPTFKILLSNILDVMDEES
Chain of RAC-alpha serine/threonine-protein kinase (Homo sapiens) (P31749 whole entry): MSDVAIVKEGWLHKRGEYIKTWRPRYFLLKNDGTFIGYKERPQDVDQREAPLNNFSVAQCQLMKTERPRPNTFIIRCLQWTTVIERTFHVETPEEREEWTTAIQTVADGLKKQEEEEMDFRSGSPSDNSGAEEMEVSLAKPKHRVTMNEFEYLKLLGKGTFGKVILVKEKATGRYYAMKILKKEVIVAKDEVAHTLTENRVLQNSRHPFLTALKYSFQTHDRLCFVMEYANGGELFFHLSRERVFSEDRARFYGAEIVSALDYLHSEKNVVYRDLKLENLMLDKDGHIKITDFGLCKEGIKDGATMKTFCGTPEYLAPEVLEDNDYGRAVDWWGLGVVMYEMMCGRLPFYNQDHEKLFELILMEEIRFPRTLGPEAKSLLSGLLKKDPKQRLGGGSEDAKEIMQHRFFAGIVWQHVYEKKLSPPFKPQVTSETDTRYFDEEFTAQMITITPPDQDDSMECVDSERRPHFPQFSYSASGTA

## CC[C@H](Nc1ncnc2[nH]cnc12)c1nc2cccc(F)c2c(=O)n1-c1ccccc1
[1]
  Activity: 97.3%
[2]
  Activity: 99%
[3]
  Activity: 93.2%
[4]
  Activity: 98.9%
[5]
  Activity: 96.5%
[6]
  Activity: 96.9%

## C[C@H](Nc1ncnc2nc[nH]c12)c1cc2cccc(Cl)c2c(=O)n1-c1ccccc1
[1]
  Activity: 98.7%
[2]
  Activity: 99.6%
[3]
  Activity: 93.2%
[4]
  Activity: 95.1%
[5]
  Activity: 88.7%
[6]
  Activity: 94.5%

## CC(C)Oc1ccc(-c2nn([C@@H](C)c3oc4ccc(F)cc4c(=O)c3-c3cccc(F)c3)c3ncnc(N)c23)cc1F [UMBRALISIB]
[1]
  Activity: 96.8%
[2]
  Activity: 93.3%
[3]
  Activity: 95.9%
[4]
  Activity: 99.1%
[5]
  Activity: 92.3%
[6]
  Activity: 97.4%
